Data as given in patent US20250281465A1, “MOLECULES THAT ENHANCE EXTRACELLULAR VESICLE RELEASE” (priority 2022, published 2025).
Entries after “also recorded” stand apart in the source; their conditions may differ.

Assays:
[1] = tested on: THP-1 cells; assay: Intracellular Ca2+ influx screening (Fura-2) in THP-1 cells; type: cell-based, human; settings: hit candidate compounds 10 μM, 25 minutes, vs vehicle control (DMSO)
Method: FIGS. 1A-1D. Intracellular Ca^2+ influx screening of 84 HTS hit candidate compounds. (A) THP-1 cells were loaded with the ratiometric Ca^2+ indicator, Fura-2, and treated with lonomycin (ION, 1 μM), Thapsigargin (1 μM), or 84 hit candidate compounds (10 μM) for 25 minutes. Data are presented as the area under the curve (AUG) of OD340/380 ratios corresponding to the intracellular Ca^2+ kinetics. The baseline-subtracted AUG was calculated using GraphPad Prism (GraphPad Software, San Diego, CA). (B) Ca^2+ mobilization by compound #634. mBMDCs were loaded with the ratiometric Ca^2+ indicator, Fura-8, and treated with ION (1 μM), or #634 (2 and 10 μM) for 25 minutes. The dashed line indicates the timing of compounds added. The data shown are representative of three independent experiments showing similar results. (C) Ca^2+ add-back assay. Fura-8-loaded mBMDC were treated with ION (1 μM), or compound #634 (2 μM, 10 μM) for 15 minutes in the absence of extracellular Ca^2+, and then Ca^2+ (final 1.8 mM) was added at 15 minutes. Data shown are representative of three independent experiments showing similar results. (D) C57BL/6 mice (n=5/group) were intramuscularly immunized with ovalbumin (OVA, 20 μg/mouse) adjuvanted with compound #634 (200 nmol/mouse), or Veh (10% DMSO) on days 0 and 21 and bled on day 28. OVA-specific IgGI and IgG2c levels in sera were determined by ELISA. **p<0.01, ***p<0.001, ns (not significant) by KruskalWallis tests with Dunn's post hoc test vs. Veh.
FIGS. 18A-18C. Compound 634 induces intracellular Ca^2+ levels in mBMDCs. […] The time-response pattern of intracellular Ca^2+ levels was recorded for 25 minutes. AUC of OD340/380 ratios corresponds to the intracellular Ca^2+ kinetics, and the baseline-subtracted AUC was calculated by GraphPad Prism. […]
FIGS. 24A-24B. […] The time-response pattern of intracellular Ca^2+ levels was recorded with a plate reader for 25 minutes. (A) The AUC of OD340/380 ratios corresponds to the intracellular Ca^2+ kinetics and the baseline-subtracted AUC was calculated by GraphPad Prism (FIG. 36). […]

[2] = tested on: mBMDCs; assay: Cell viability / cytotoxicity in mBMDCs (MTT); type: cell-based, mouse; settings: mBMDCs, Example 2 clustered hits
Method: FIGS. 30A-30B. […] After 48 hours incubation, cell viability was determined by MTT assay.
mBMDCs (10^5 cells/200 μL/well) were treated with 10 and 5 μM of a test compound in 96-well plates overnight. After 18 hours of drug treatment, MTT (0.5 mg/ml) was added to each well. The cells were lysed after 6-8 hours incubation, and absorbance values at 570 and 650 nm were measured. PrestoBlue reagent (#A13261, Thermo Fisher Scientific) was used for cell viability assay in CD63 HTS as described earlier.
Cell viability assay. mBMDCs (2×10^6 cells/200 μL/well in RPMI1640 supplemented with dialyzed 10% FBS, or 1.5×10^6 cells/200 μL/well in RPMI1640 supplemented with 10% exosome depleted FBS) were treated with 10 μM of each test compound in 96-well plates. After 46-48 hours of compound treatment, MTT (0.5 mg/mL) was added to each well. The cells were lysed after overnight incubation, and absorbance values at 570 and 650 nm were measured.

[3] = tested on: NF-κB; assay: NF-κB-bla THP-1 HTS; type: cell-based, human; settings: 10 μM, 5 hours
Method: The robotic HTS using the three reporter cells were performed using 384-well plates by the SelectScreen™ service, Thermo Fisher Scientific (Madison, WI) (Pu et al., 2012; Chan et al., 2017b; Shukla et al., 2018). For HTS using NF-κB-bla and ISRE-bla THP-1 cells, LPS (100 ng/ml) and human IFN-α (50 nM) were used as the positive controls, respectively, while 0.5% DMSO was used as vehicle (Veh). The cells were incubated with compounds (10 μM) for 5 hours, and LiveBLAzer™ FRET BIG substrate (CCF4-AM) mixture was added. Fluorescence was measured at an excitation wavelength of 405 nm, and emission wavelengths of 465 and 535 nm. The background values were subtracted from the raw values (cell-free wells at the same fluorescence wavelength). Emission ratios were calculated by dividing background-subtracted values from em1ss1on wavelength of 465 nm by those from emission wavelength of 535 nm. The response ratio (RR) was calculated as follows (emission ratio of a test well)/(average emission ratio of wells with Veh). Further, for comparison of activity, “% activation” for each compound was computed within the plate as 100×(compound RR−average Veh RR)/(average LPS RR−average Veh RR).

[4] = tested on: mBMDCs; assay: EV release from mBMDCs (differential ultracentrifugation, MRPS); settings: 10 μM, 46-48 h, vs Veh

Question: COC(=O)c1sc(-c2cccs2)cc1NS(=O)(=O)c1ccsc1C(=O)OC [#504] was tested. Which “intracellular Ca^2+ increase (Fura-2 assay)” value [1] did it give?
Answer: higher intracellular Ca^2+ increase than vehicle control; also recorded: potent in calcium Fura-2 assay

Question: And the “MTT assay values (cell viability)” value [2]?
Answer: higher MTT values

Question: And the “NF-κB activity (primary HTS)” value [3]?
Answer: much lower NF-κB inducing activity

Question: What about the “number of EV particles released in the culture supernatant” value [4] of the same compound?
Answer: low
